Experimental data reported in patent US20240115672A1, “TREATMENT OF AN IOP CONDITION” (THE RESEARCH FOUNDATION FOR THE STATE UNIVERSITY OF NEW YORK, priority 2021, published 2024).

What was measured:
[1] = tested on: MMP-1, MMP-2, MMP-9, MMP-13, PLAT, PAI-1 mRNA; assay: qRT-PCR gene expression in sheep TM and ciliary processes after tPA; format: in vivo
Source text: Methods. Tissue Collection and Isolation of RNA. After animals were euthanized, eyes were immediately enucleated. Eyes were then opened anterior to the equator using a razor blade. The lens was removed from the anterior part, and the tissue was immersed in RNA stabilizing agent (RNAlater; Ambion, Carlsbad, CA) and placed at […] for transportation to the United States. Upon arrival in the United States, TM and ciliary processes (CP) were dissected on ice in the presence of RNA stabilizing agent as described previously. Dissected tissue was homogenized, and total RNA was extracted using TRIzol reagent (Gibco. Carlsbad, CA). Briefly, the tissue was homogenized in TRIzol, and chloroform was added to separate proteins from RNA. After centrifugation, the RNA-containing supernatant was aspirated. The RNA was precipitated with isopropanol, washed with 75% ethanol, treated with DNase, and column purified using a commercial kit (RNAeasy Mini Kit; Qiagen, Valencia, CA) in accordance with the manufacturer's instructions. RNA concentrations were determined with a spectrophotometer (Nanodrop; Thermo Scientific, Wilmington, DE) and the 260:280-nm absorbance ratio was calculated to determine RNA purity.
Quantitative Real-Time PCR (qRT-PCR) The RNA samples were reverse transcribed with random hexamers to cDNA using a reverse transcription kit (Quantitect; Qiagen) in accordance with the manufacturer's instructions. Quantitative RT-PCR was performed using a commercial kit (SYBR Green RT-PCR Reagents Kit; Applied Biosystems, Carlsbad, CA) in an ABI PRISM 7900HT sequence detector (Applied Biosystems). The sheep endogenous mRNA expression of matrix metalloproteinase-1 (MMP-1), matrix metalloproteinase-2 (MMP-2), matrix metalloproteinase-9 (MMP-9), matrix metalloproteinase-13 (MMP-13). and plasminogen activator tissue (PLAT) in the TM were investigated. Plasminogen activator inhibitor 1 (PA1-1) mRNA expression was measured in both TM and ciliary processes tissues. Relative quantification of gene expression was performed using the standard curve method. Mean threshold cycle (Ct) of the samples was compared among the groups by using the Ct. of 18S as an internal control. The DCt was calculated as the difference in Ct values derived from the target gene and the 18S gene. The DDCt was calculated as DCt of the normalized assayed genes in the treated samples minus DCt of normalized assayed genes in the naive control samples. Relative expression was calculated by the 2exp DD Ct formula.

[2] = tested on: Mmp-2, Mmp-9, Mmp-13 mRNA in angle ring tissues; assay: Mmp expression in TA and protein treated C57BL/6J eyes (Example 13); format: in vivo, mouse; conditions: TA + protein; compared to BSA treated controls; p<0.0001
[3] = tested on: sheep of the Corriedale breed; assay: IOP in prednisolone-treated sheep after intravitreal tPA (Example 3, Protocol 1); format: in vivo
Experimental: Methods. The inventors used recombinant human tissue plasminogen activator (rtPA) ([…]; Boehringer Ingelheim SA, Buenos Aires, Argentina) in two different protocols.
Protocol 1. 8 sheep of the Corriedale breed were treated with prednisolone acetate three times a day in both eyes, leading to elevated IOP. After one week, the animals received intravitreal injections of human recombinant tPA (100, 200, 500 and 1000 μg, two animals each) dissolved in balanced salt solution (BSS) in one eye. IOP was monitored for 19 more days while the animals continued to receive treatment with prednisolone. Periodic slit lamp examination was also performed.

[4] = tested on: MMP-2, MMP-9, MMP-13 expression in HTM cells; assay: MMP expression in HTM cells (Examples 17, 18); format: cell-based, human; conditions: PA treated HTM cells; p<0.0001

Substance: tPA: recombinant human tissue plasminogen activator (ACTILYSE; Boehringer Ingelheim), enzymatically active
- MMP1 expression ([1]; sheep, after tPA): up-regulates
- MMP2 expression ([1]; sheep, after tPA): up-regulates
- MMP9 expression ([1]; sheep, after tPA): up-regulates
- MMP13 expression ([1]; sheep, after tPA): up-regulates
- PAI-1 expression ([1]; trabecular meshwork (TM) and ciliary processes): up-regulating
- Mmp-2 expression [2]: significant upregulation
- dose dependence of the IOP effect ([3]; 100, 200, 500 and 1000 μg, p>0.05 ANOVA): independent of the dose
- ocular findings ([3]; intravitreal tPA, unrelated to the dose injected): Transient injection and corneal clouding was observed in some eyes
- mean (±SD) IOP after tPA ([3]; within 24 h of intravitreal tPA, all doses tested (100-1000 μg), prednisolone continued, before 24.1 (±1.6)): 14.1 (±1.1) mmHg
- expression (FIG. 17C) compared to PA+BSA treated cells [4]: significant upregulation
